Converted amounts (≈) assume the structure as drawn. “Also recorded” adds a separate entry of the source. Read-outs that look alike come from different tables or passages of the source.
Key:
[1] = Solubility determination in PBS pH 7.4; format: physicochemical; settings: aqueous buffer, kinetic from dmso stock; PBS pH 7.4, 2 hours, 25° C.; the listed prodrug
Description: Stock solutions (10 mM DMSO, 30 μL) of each sample were placed into 96-well plate, along with 970 μL of PBS pH 7.4 were added into each vial of the cap-less solubility sample plate. The assay was performed in duplicate. A stir stick was added to each well and sealed using a molded PTFE/Silicone plug. Then the Solubility Sample plate was transferred to an Eppendorf Thermomixer Comfort plate shaker and shaken at 1100 RPM for 2 hours at 25° C. After completion the plugs and stir sticks were removed and the samples were transferred into a filter plate and filtered using a vacuum manifold. 5 μL aliquots of filtrate were taken and diluted with 5 μL DMSO and 490 μL of a 1:1 v/v mixture of H2O and acetonitrile. 200 μL of diluent was transferred to a new 96-well plate for LC-MS/MS analysis. The solution was analyzed and quantified against a standard of known concentration in DMSO using LC coupled with Mass spectral peak for identification and quantitation.

[2] = molecular target: pCDK2-CCNE1 proteins (Homo sapiens, UniProt P24941); test: Identification of covalent binding by intact mass spectrometry, with and without competitor PF-06873600; settings: for Observed mass value of the covalent complex between compound and CDK2 protein: intact mass spectrometry after borohydride reduction, unmodified CDK2 34096-34097 Da; for Covalent complex formation with CDK2 protein (intact mass spectra after sodium borohydride reduction) / Binding pocket by competition: complex formation in presence of molar excess PF-06873600: pCDK2-CCNE1 1 μM, compound 1.5 μM; for Covalent complex formation with CDK2 protein (intact mass spectra after sodium borohydride reduction): 1 hour at room temperature or 37° C., no competitor; for Binding pocket by competition: complex formation in presence of molar excess PF-06873600: competitor PF-06873600 20 μM
Description: pCDK2-CCNE1 proteins (1 μM) were treated with a compound (1.5 μM) from Table 4 for 1 hour at room temperature or 37° C., with and without competitor molecule PF-06873600 (20 μM final concentration) as a specificity control. As used herein, the competitor molecule is
As used herein, the competitor molecule is 6-(difluoromethyl)-8-((1R,2R)-2-hydroxy-2-methylcyclopentyl)-2-((1-(methylsulfonyl)piperidin-4-yl)amino)pyrido[2,3-d]pyrimidin-7(8H)-one (PF-06873600). Reversible imines were captured by reductive amination with the addition of 5 mM sodium borohydride at room temperature for 5 min. Reduction reactions were quenched by diluting the sample in equal volume of 1% trifluoroacetic acid (v/v) in acetonitrile, then analyzed by LC-MS. Deconvoluted monoisotopic intensities of unmodified and compound-modified mass peaks were compared.
FIGS. 1A to 1P provide intact mass spectra for pCDK2-CCNE1 proteins after incubation with compounds of the present disclosure and subsequent sodium borohydride reduction. […] Further, FIGS. 1A to 1P each provide intact mass spectra following the incubation of pCDK2-CCNE1 proteins with a compound of the present disclosure both in the absence of a competitor molecule (i.e., PF-06873600, a molecule known to bind to and inhibit the function of CDK2); and in the presence of a significant stoichiometric excess of a competitor molecule PF-06873600.
FIGS. 2A to 2N provide intact mass spectra for pCDK2-CCNE1 proteins after incubation with compounds of the present disclosure and subsequent sodium borohydride reduction.

[3] = molecular target: T1, CDK1-NanoLuc fusion with CCNB1 in 293T or 293 cells (Homo sapiens, UniProt P06493); test: NanoBRET Target Engagement (TE) Intracellular Kinase Assay, CDK1/CCNB1; format: cell-based; settings: NanoBRET TE intracellular kinase assay, 2-hour incubation, read-out: NanoBRET-CDK1/B1 IC50
T1 construct: host or cells: 293T (ATCC CRL-3216) or 293 (ATCC CRL-1573)
T1 sequence (P06493 whole entry, the tested form may be a part): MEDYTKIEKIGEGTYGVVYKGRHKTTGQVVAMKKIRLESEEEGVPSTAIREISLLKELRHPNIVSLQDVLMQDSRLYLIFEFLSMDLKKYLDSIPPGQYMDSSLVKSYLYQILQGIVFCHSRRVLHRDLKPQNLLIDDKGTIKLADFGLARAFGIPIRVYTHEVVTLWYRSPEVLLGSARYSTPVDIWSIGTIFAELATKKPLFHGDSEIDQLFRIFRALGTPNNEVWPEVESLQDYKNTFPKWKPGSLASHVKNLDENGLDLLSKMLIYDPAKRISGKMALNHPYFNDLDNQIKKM
T1 sequence (P14635 whole entry partner, the tested form may be a part): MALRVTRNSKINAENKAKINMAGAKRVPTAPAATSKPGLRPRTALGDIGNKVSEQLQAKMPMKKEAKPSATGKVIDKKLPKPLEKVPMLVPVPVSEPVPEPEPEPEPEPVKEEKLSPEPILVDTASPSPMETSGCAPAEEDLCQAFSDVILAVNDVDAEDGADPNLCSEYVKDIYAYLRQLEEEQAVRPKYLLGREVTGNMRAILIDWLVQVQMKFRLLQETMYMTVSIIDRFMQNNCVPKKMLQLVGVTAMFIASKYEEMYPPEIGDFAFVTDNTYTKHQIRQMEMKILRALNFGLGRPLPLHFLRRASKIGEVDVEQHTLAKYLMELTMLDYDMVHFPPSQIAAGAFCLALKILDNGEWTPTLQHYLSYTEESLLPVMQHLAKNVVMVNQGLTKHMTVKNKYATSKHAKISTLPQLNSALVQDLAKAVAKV
Summary of the method: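 293T or 293 cells co-transfected with CDK1-NanoLuc and CCNB1 vectors, incubated 24 h, then exposed to NanoBRET Tracer K-10 plus compound for 2 h at 37° C. BRET ratio (610/450 nm) normalized to DMSO; IC50 from four-parameter logistic fit.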

[4] = molecular target: T2, CDK4-NanoLuc fusion with CCND1 in 293T or 293 cells (Homo sapiens, UniProt P11802); test: NanoBRET Target Engagement (TE) Intracellular Kinase Assay, CDK4/CCND1; format: cell-based; settings: NanoBRET TE intracellular kinase assay, 2-hour incubation, read-out: NanoBRET-CDK4/D1 IC50
T2 construct: host or cells: 293T (ATCC CRL-3216) or 293 (ATCC CRL-1573)
T2 sequence (P11802 whole entry, the tested form may be a part): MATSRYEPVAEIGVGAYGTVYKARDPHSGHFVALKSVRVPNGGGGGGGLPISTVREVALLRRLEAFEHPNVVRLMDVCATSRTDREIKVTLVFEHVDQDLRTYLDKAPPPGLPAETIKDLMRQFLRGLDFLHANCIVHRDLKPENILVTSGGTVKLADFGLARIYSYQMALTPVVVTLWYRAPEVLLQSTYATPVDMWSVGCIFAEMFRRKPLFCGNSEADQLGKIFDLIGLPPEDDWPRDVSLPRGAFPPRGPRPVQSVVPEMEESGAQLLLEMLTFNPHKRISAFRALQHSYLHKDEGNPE
T2 sequence (P24385 whole entry partner, the tested form may be a part): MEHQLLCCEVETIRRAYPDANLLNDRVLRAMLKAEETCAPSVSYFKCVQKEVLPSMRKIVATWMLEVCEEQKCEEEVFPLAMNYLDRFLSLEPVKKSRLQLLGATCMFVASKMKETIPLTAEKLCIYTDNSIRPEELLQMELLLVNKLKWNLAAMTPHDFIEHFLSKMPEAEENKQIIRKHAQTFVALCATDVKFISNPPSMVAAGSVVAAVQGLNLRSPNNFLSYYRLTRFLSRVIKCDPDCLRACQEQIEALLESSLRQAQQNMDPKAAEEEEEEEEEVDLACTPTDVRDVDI

[5] = molecular target: T3, CDK2-NanoLuc fusion with CCNE1 in 293T or 293 cells (Homo sapiens, UniProt P24941); test: NanoBRET Target Engagement (TE) Intracellular Kinase Assay, CDK2/CCNE1; format: cell-based; settings: 2-hour incubation
T3 construct: host or cells: 293T (ATCC CRL-3216) or 293 (ATCC CRL-1573)

[6] = system: Phospho-Rb Ser807/811 in OVCAR3 cells; test: OVCAR3 Phospho-Rb Ser807/811 HTRF assay; format: cell-based; settings: Homo sapiens, OVCAR-3, 1 h, read-out: pRb-OVCAR3 IC50
Description: Cells were trypsinized and resuspended in 1 mM hydroxyurea (Sigma; H8627), 90% RPMI and 10% fetal bovine serum. […] Dose response curve normalized to DMSO control was plotted using four-parameter logistic model for IC50 calculation.

[7] = NanoBRET TE intracellular kinase assay, read-out: NanoBRET-CDK2/E1 IC50
[8] = OVCAR3 cells, Phospho-Rb Ser807/811 HTRF, 1 hour incubation
[9] = NanoBRET-CDK2/E1 IC50, NanoBRET TE intracellular kinase assay

solubility at 2 h [1] [µM] | Observed mass value of the covalent complex between compound and CDK2 protein [2] [Da] | IC50 [3] [µM] | IC50 [4] [µM] | IC50 [5, 7] [µM] | IC50 [6, 8] [µM] | Compound | Covalent complex formation with CDK2 protein (intact mass spectra after sodium borohydride reduction) ([2]; 2,2,2-trifluoroacetate) | Binding pocket by competition: complex formation in presence of molar excess PF-06873600 [2] | Covalent complex formation with CDK2 protein (intact mass spectra after sodium borohydride reduction) [2] | Covalent complex formation with CDK2 protein (intact mass spectra after sodium borohydride reduction) ([2]; trifluoroacetic acid) | IC50 [5, 9] [µM] | IC50 [6] [µM]
48 (≈ 24 µg/mL) | – | – | – | – | – | CC/N=C/c1c(O)cc(OC)cc1OCC(=O)Nc1cc([C@H]2CC[C@@H](OC(=O)NC3(C)CC3)C2)[nH]n1 [Compound 251c, (1R,3S)-3-(3-(2-(2-((E)-(ethylimino)methyl)-3-hydroxy-5-methoxyphenoxy)acetamido)-1H-pyrazol-5-yl)cyclopentyl (1-methylcyclopropyl)carbamate] | – | – | – | – | – | –
243 (≈ 138 µg/mL) | – | – | – | – | – | COc1cc(O)c(/C=N/CCS(=O)(=O)O)c(OCC(=O)Nc2cc([C@H]3CC[C@@H](OC(=O)NC(C)C)C3)[nH]n2)c1 [Compound 64q, 2-(((E)-2-hydroxy-6-(2-((5-((1S,3R)-3-((isopropylcarbamoyl)oxy)cyclopentyl)-1H-pyrazol-3-yl)amino)-2-oxoethoxy)-4-methoxybenzylidene)amino)ethane-1-sulfonic acid] | – | – | – | – | – | –
– | 34561 | 0.0167 | 4.58 | 0.00487 | 0.226 | CC(C)NC(=O)O[C@@H]1CC[C@H](c2cc(NC(=O)c3cc(-c4cccc(O)c4C=O)nn3C)n[nH]2)C1 [Compound 17, (1R,3S)-3-{5-[5-(2-formyl-3-hydroxyphenyl)-2-methylpyrazole-3-amido]-2H-pyrazol-3-yl}cyclopentyl N-isopropylcarbamate 2,2,2-trifluoroacetate] | formed a covalent complex with CDK2 protein; also recorded: resulted in covalent complex formation | bound to the same binding pocket of CDK2 as the competitor molecule PF-06873600 | – | – | – | –
– | 34525 | 0.052 | 4.92 | 0.00466 | 0.352 | CC(C)NC(=O)O[C@@H]1CC[C@H](c2cc(NC(=O)[C@@H](C)Oc3cccc(O)c3C=O)n[nH]2)C1 [Compound 32, (1R,3S)-3-{5-[(2R)-2-(2-formyl-3-hydroxyphenoxy)propanamido]-2H-pyrazol-3-yl}cyclopentyl N-isopropylcarbamate] | – | bound to the same binding pocket of CDK2 as the competitor molecule PF-06873600 | formed a covalent complex with CDK2 protein | – | – | –
– | 34588 | 0.0702 | > 10 | 0.0245 | 0.161 | CC(C)NC(=O)O[C@@H]1CC[C@H](c2cc(NC(=O)COc3cccc(NS(C)(=O)=O)c3C=O)n[nH]2)C1 [Compound 49, (1R,3S)-3-{5-[2-(2-formyl-3-methanesulfonamidophenoxy)acetamido]-2H-pyrazol-3-yl}cyclopentyl N-isopropyl carbamate] | – | – | – | – | – | –
– | 34511 | 0.0173 | > 9.9 | 0.00372 | 0.102 | CC(C)NC(=O)O[C@@H]1CC[C@H](c2cc(NC(=O)COc3cccc(O)c3C=O)n[nH]2)C1 [Compound 11, (1R,3S)-3-{5-[2-(2-formyl-3-hydroxyphenoxy)acetamido]-2H-pyrazol-3-yl}cyclopentyl N-isopropylcarbamate] | – | bound to the same binding pocket of CDK2 as the competitor molecule PF-06873600 | formed a covalent complex with CDK2 protein; also recorded: resulted in covalent complex formation | – | – | –
– | 34546 | 0.0929 | 4.7 | 0.0124 | 0.701 | CC(C)NC(=O)O[C@@H]1CC[C@H](c2cc(Nc3cc(Oc4cccc(O)c4C=O)ccn3)n[nH]2)C1 [Compound 13, (1R,3S)-3-(5-{[4-(2-formyl-3-hydroxyphenoxy)pyridin-2-yl]amino}-2H-pyrazol-3-yl)cyclopentyl N-isopropylcarbamate; trifluoroacetic acid] | – | bound to the same binding pocket of CDK2 as the competitor molecule PF-06873600 | formed a covalent complex with CDK2 protein | – | – | –
– | 34554 | 0.00566 | 3.79 | 0.00143 | 0.0317 | COc1cc(OC)c(C=O)c(OCC(=O)Nc2cc([C@H]3CC[C@@H](OC(=O)NC(C)C)C3)[nH]n2)c1 [Compound 103, (1R,3S)-3-{5-[2-(2-formyl-3,5-dimethoxyphenoxy)acetamido]-2H-pyrazol-3-yl}cyclopentyl N-isopropylcarbamate] | – | – | resulted in covalent complex formation | – | – | –
– | 34550 | 0.0113 | 1.28 | 0.00227 | 0.0447 | COc1cc(O)c(C=O)c([C@@H]2C[C@H]2C(=O)Nc2cc([C@H]3CC[C@@H](OC(=O)NC(C)C)C3)[nH]n2)c1 (mixture of isomers) [Compound 89, (1R,3S)-3-{5-[trans-2-(2-formyl-3-hydroxy-5-methoxyphenyl)cyclopropaneamido]-2H-pyrazol-3-yl}cyclopentyl N-isopropylcarbamate] | – | – | resulted in covalent complex formation | – | – | –

Compound | solubility at 2 h [1] [µM] | Observed mass value of the covalent complex between compound and CDK2 protein [2] [Da] | IC50 [3] [µM] | IC50 [4] [µM] | IC50 [5, 7] [µM] | IC50 [6, 8] [µM] | Covalent complex formation with CDK2 protein (intact mass spectra after sodium borohydride reduction) ([2]; 2,2,2-trifluoroacetate) | Binding pocket by competition: complex formation in presence of molar excess PF-06873600 [2] | Covalent complex formation with CDK2 protein (intact mass spectra after sodium borohydride reduction) [2] | Covalent complex formation with CDK2 protein (intact mass spectra after sodium borohydride reduction) ([2]; trifluoroacetic acid) | IC50 [5, 9] [µM] | IC50 [6] [µM]
CC(C)NC(=O)O[C@@H]1CC[C@H](c2cc(NC(=O)c3ccnc(Oc4cccc(O)c4C=O)c3)n[nH]2)C1 [Compound 69, (1R,3S)-3-{5-[2-(2-formyl-3-hydroxyphenoxy)pyridine-4-amido]-2H-pyrazol-3-yl}cyclopentyl N-isopropylcarbamate; trifluoroacetic acid] | – | 34574 | 0.079 | 1.95 | – | – | – | bound to the same binding pocket of CDK2 as the competitor molecule PF-06873600 | – | formed a covalent complex with CDK2 protein; also recorded: resulted in covalent complex formation | 0.00192 | 0.73
CC(C)NC(=O)O[C@@H]1CC[C@H](c2cc(NC(=O)c3cc(-c4c(F)ccc(O)c4C=O)nn3C)n[nH]2)C1 [Compound 45, (1R,3S)-3-(3-(3-(6-fluoro-2-formyl-3-hydroxyphenyl)-1-methyl-1H-pyrazole-5-carboxamido)-1H-pyrazol-5-yl)cyclopentyl isopropylcarbamate] | – | 34579 | 0.00681 | 1.58 | – | 0.114 | – | – | – | – | 0.0028 | –
